According to patent US20200022370A1, “MICROBIOCIDAL OXADIAZOLE DERIVATIVES” (SYNGENTA PARTICIPATIONS AG, priority 2016, published 2020):
Where two headings read alike, the source gives them in different places.

Columns and labels:
[1] = tested on: Puccinia recondita f. Sp. Tritici; experiment: Puccinia recondita f. sp. tritici / wheat / leaf disc preventative (brown rust); assay type: in vivo; conditions: foliar, read-out: disease control
Procedure: (§1) Leaf disks or leaf segments of various plant species are cut from plants grown in a greenhouse. The cut leaf disks or segments are placed in multiwell plates (24-well format) onto water agar. The leaf disks are sprayed with a test solution before (preventative) or after (curative) inoculation. Compounds to be tested are prepared as DMSO solutions (max. 10 mg/ml) which are diluted to the appropriate concentration with 0.025% Tween20 just before spraying. The inoculated leaf disks or segments are incubated under defined conditions (temperature, relative humidity, light, etc.) according to the respective test system. A single evaluation of disease level is carried out 3 to 14 days after inoculation, depending on the pathosystem. Percent disease control relative to the untreated check leaf disks or segments is then calculated.
Example 1: Fungicidal Activity Against Puccinia recondita f. Sp. Tritici/Wheat/Leaf Disc Preventative (Brown Rust)
Wheat leaf segments cv. Kanzler were placed on agar in multiwell plates (24-well format) and sprayed with the Formulated test compound diluted in water. The leaf disks were inoculated with a spore suspension of the fungus 1 day after application. The inoculated leaf segments were incubated at 19° C. and 75% relative humidity (rh) under a light regime of 12 hours light/12 hours darkness in a climate cabinet and the activity of a compound was assessed as percent disease control compared to untreated when an appropriate level of disease damage appears in untreated check leaf segments (7 to 9 days after application).
(§2) The following compounds at 200 ppm in the applied Formulation give at least 80% disease control in this test when compared to untreated control leaf disks under the same conditions, which show extensive disease development.

Phakopsora pachyrhizi = Phakopsora pachyrhizi / soybean / leaf disc preventative (Asian soybean rust); assay type: in vivo; conditions: foliar, 200 ppm in the applied formulation, soybean leaf disks, inoculated one day after application, vs untreated, 12 to 14 days after application, read-out: disease control
Procedure: as §1
Example 3: Fungicidal Activity Against Phakopsora pachyrhizi/Soybean/Leaf Disc Preventative (Asian Soybean Rust)
Soybean leaf disks are placed on water agar in multiwell plates (24-well format) and sprayed with the Formulated test compound diluted in water. One day after application leaf discs are inoculated by spraying a spore suspension on the lower leaf surface. After an incubation period in a climate cabinet of 24-36 hours in darkness at 20° C. and 75% rh leaf disc are kept at 20° C. with 12 h light/day and 75% rh. The activity of a compound is assessed as percent disease control compared to untreated when an appropriate level of disease damage appears in untreated check leaf disks (12 to 14 days after application).
as §2

[2] = tested on: Glomerella lacenarium (Colletotrichum lacenarium); experiment: Glomerella lacenarium (Colletotrichum lacenarium) liquid culture / cucumber / preventative (anthracnose); assay type: cell-based; conditions: read-out: disease control
Procedure: Mycelia fragments or conidia suspensions of a fungus prepared either freshly from liquid cultures of the fungus or from cryogenic storage, are directly mixed into nutrient broth. DMSO solutions of the test compound (max. 10 mg/ml) are diluted with 0.025% Tween20 by a factor of 50 and 10 μl of this solution is pipetted into a microtiter plate (96-well format). The nutrient broth containing the fungal spores/mycelia fragments is then added to give an end concentration of the tested compound. The test plates are incubated in the dark at 24° C. and 96% relative humidity. The inhibition of fungal growth is determined photometrically after 2 to 7 days, depending on the pathosystem, and percent antifungal activity relative to the untreated check is calculated.
Example 4: Fungicidal Activity Against Glomerella lacenarium (Colletotrichum lacenarium) Liquid Culture/Cucumber/Preventative (Anthracnose)
Conidia of the fungus from cryogenic storage are directly mixed into nutrient broth (PDB-potato dextrose broth). After placing a (DMSO) solution of test compound into a microtiter plate (96-well format), the nutrient broth containing the fungal spores is added. The test plates are incubated at 24° C. and the inhibition of growth is measured photometrically 3 to 4 days after application.
The following compounds at 20 ppm in the applied Formulation give at least 80% disease control in this test when compared to untreated control under the same conditions, which show extensive disease development.

[3] = 200 ppm in the applied formulation, wheat leaf segments cv. Kanzler, inoculated 1 day after application, vs untreated, 7 to 9 days after application
[4] = 20 ppm, liquid culture in PDB, 24° C., inhibition of growth measured photometrically 3 to 4 days after application, vs untreated

O=C(CC(F)(F)F)Nc1ccc(-c2noc(C(F)(F)F)n2)cc1 [Compound 1.125, 3,3,3-trifluoro-N-[4-[5-(trifluoromethyl)-1,2,4-oxadiazol-3-yl]phenyl] propanamide]
pest or weed control at 200 ppm [1, 3]: ≥ 80%
pest or weed control at 200 ppm (Phakopsora pachyrhizi): ≥ 80%
inhibition of growth at 20 ppm [2, 4]: ≥ 80%

CCCCC(=O)Nc1ccc(-c2noc(C(F)(F)F)n2)cc1 [Compound 1.92, N-[4-[5-(trifluoromethyl)-1,2,4-oxadiazol-3-yl]phenyl]pentanamide]
pest or weed control at 200 ppm [1, 3]: ≥ 80%
pest or weed control at 200 ppm (Phakopsora pachyrhizi): ≥ 80%
inhibition of growth at 20 ppm [2, 4]: ≥ 80%

COCc1nc(C)c(C(=O)Nc2ccc(-c3noc(C(F)(F)F)n3)nc2)s1 [Compound 1.51, 2-(methoxymethyl)-4-methyl-N-[6-[5-(trifluoromethyl)-1,2,4-oxadiazol-3-yl]-3-pyridyl]thiazole-5-carboxamide]
pest or weed control at 200 ppm (Phakopsora pachyrhizi): ≥ 80%

CC1(C(=O)Nc2ccc(-c3noc(C(F)(F)F)n3)cc2)CC1 [Compound 2.11, 1-methyl-N-[4-[5-(trifluoromethyl)-1,2,4-oxadiazol-3-yl]phenyl] cyclopropane-carboxamide]
pest or weed control at 200 ppm [1, 3]: ≥ 80%
pest or weed control at 200 ppm (Phakopsora pachyrhizi): ≥ 80%
inhibition of growth at 20 ppm [2, 4]: ≥ 80%

O=C(CCCC=C(F)F)Nc1ccc(-c2noc(C(F)(F)F)n2)cc1 [Compound 1.98, 6,6-difluoro-N-[4-[5-(trifluoromethyl)-1,2,4-oxadiazol-3-yl]phenyl]hex-5-enamide]
pest or weed control at 200 ppm [1, 3]: ≥ 80%
inhibition of growth at 20 ppm [2, 4]: ≥ 80%

CCC(=O)Nc1ccc(CC(=O)Nc2ccc(-c3noc(C(F)(F)F)n3)cc2)cc1 [Compound 1.27, N-[4-[2-oxo-2-[4-[5-(trifluoromethyl)-1,2,4-oxadiazol-3-yl]anilino]ethyl]phenyl]propanamide]
pest or weed control at 200 ppm (Phakopsora pachyrhizi): ≥ 80%

CN(C(=O)C1CC1(F)F)c1ccc(-c2noc(C(F)(F)F)n2)cc1 (centres unmarked) [Compound 1.133, 2,2-difluoro-N-methyl-N-[4-[5-(trifluoromethyl)-1,2,4-oxadiazol-3-yl]phenyl]cyclo-propanecarboxamide]
pest or weed control at 200 ppm (Phakopsora pachyrhizi): ≥ 80%

CN(C(=O)C1(C)CC1)c1ccc(-c2noc(C(F)(F)F)n2)cc1 [Compound 1.138, N,1-dimethyl-N-[4-[5-(trifluoromethyl)-1,2,4-oxadiazol-3-yl]phenyl]cyclo-propanecarboxamide]
pest or weed control at 200 ppm (Phakopsora pachyrhizi): ≥ 80%

O=C(CSc1ccccc1)Nc1ccc(-c2noc(C(F)(F)F)n2)cc1 [Compound 1.44, 2-phenylsulfanyl-N-[4-[5-(trifluoromethyl)-1,2,4-oxadiazol-3-yl]phenyl]acetamide]
pest or weed control at 200 ppm [1, 3]: ≥ 80%
inhibition of growth at 20 ppm [2, 4]: ≥ 80%

CCC(=O)N(OC)c1ccc(-c2noc(C(F)(F)F)n2)cc1 [Compound 2.28, N-methoxy-N-[4-[5-(trifluoromethyl)-1,2,4-oxadiazol-3-yl]phenyl] propanamide]
pest or weed control at 200 ppm (Phakopsora pachyrhizi): ≥ 80%
inhibition of growth at 20 ppm [2, 4]: ≥ 80%

O=C(CC1CC(F)(F)C1)Nc1ccc(-c2noc(C(F)(F)F)n2)cc1 [Compound 1.97, 2-(3,3-difluorocyclobutyl)-N-[4-[5-(trifluoromethyl)-1,2,4-oxadiazol-3-yl]phenyl]acetamide]
pest or weed control at 200 ppm [1, 3]: ≥ 80%
inhibition of growth at 20 ppm [2, 4]: ≥ 80%

CC1CC1C(=O)N(C)c1ccc(-c2noc(C(F)(F)F)n2)cc1 (centres unmarked) [Compound 1.137, N,2-dimethyl-N-[4-[5-(trifluoromethyl)-1,2,4-oxadiazol-3-yl]phenyl]cyclo-propanecarboxamide]
pest or weed control at 200 ppm (Phakopsora pachyrhizi): ≥ 80%
inhibition of growth at 20 ppm [2, 4]: ≥ 80%

O=C(CF)Nc1ccc(-c2noc(C(F)(F)F)n2)cc1 [Compound 1.19, 2-fluoro-N-[4-[5-(trifluoromethyl)-1,2,4-oxadiazol-3-yl]phenyl]acetamide]
pest or weed control at 200 ppm [1]: ≥ 80%
inhibition of growth at 20 ppm [2]: ≥ 80%

O=C(Cc1ccccc1F)Nc1ccc(-c2noc(C(F)(F)F)n2)cc1 [Compound 1.100, 2-(2-fluorophenyl)-N-[4-[5-(trifluoromethyl)-1,2,4-oxadiazol-3-yl]phenyl]acetamide]
pest or weed control at 200 ppm [1, 3]: ≥ 80%
inhibition of growth at 20 ppm [2, 4]: ≥ 80%

O=C(CCc1ccccc1)Nc1ccc(-c2noc(C(F)(F)F)n2)cc1 [Compound 1.76, 3-phenyl-N-[4-[5-(trifluoromethyl)-1,2,4-oxadiazol-3-yl]phenyl] propanamide]
pest or weed control at 200 ppm [1, 3]: ≥ 80%
inhibition of growth at 20 ppm [2, 4]: ≥ 80%

O=C(CC1CC1)Nc1ccc(-c2noc(C(F)(F)F)n2)cc1 [Compound 1.80, 2-cyclopropyl-N-[4-[5-(trifluoromethyl)-1,2,4-oxadiazol-3-yl]phenyl]acetamide]
pest or weed control at 200 ppm [1, 3]: ≥ 80%
inhibition of growth at 20 ppm [2, 4]: ≥ 80%

CC(C)(C(=O)Nc1ccc(-c2noc(C(F)(F)F)n2)nc1)c1ncc(Cl)cc1Cl [Compound 1.53, 2-(3,5-dichloro-2-pyridyl)-2-methyl-N-[6-[5-(trifluoromethyl)-1,2,4-oxadiazol-3-yl]-3-pyridyl]propanamide]
pest or weed control at 200 ppm (Phakopsora pachyrhizi): ≥ 80%

CCC(CC)C(=O)Nc1ccc(-c2noc(C(F)(F)F)n2)cc1 [Compound 1.91, 2-ethyl-N-[4-[5-(trifluoromethyl)-1,2,4-oxadiazol-3-yl]phenyl]butanamide]
pest or weed control at 200 ppm (Phakopsora pachyrhizi): ≥ 80%
inhibition of growth at 20 ppm [2, 4]: ≥ 80%

O=C(Cc1cccs1)Nc1ccc(-c2noc(C(F)(F)F)n2)cc1 [Compound 1.89, 2-(2-thienyl)-N-[4-[5-(trifluoromethyl)-1,2,4-oxadiazol-3-yl]phenyl]acetamide]
pest or weed control at 200 ppm [1, 3]: ≥ 80%
inhibition of growth at 20 ppm [2, 4]: ≥ 80%

C=CCCC(=O)Nc1ccc(-c2noc(C(F)(F)F)n2)cc1 [Compound 1.88, N-[4-[5-(trifluoromethyl)-1,2,4-oxadiazol-3-yl]phenyl]pent-4-enamide]
pest or weed control at 200 ppm [1, 3]: ≥ 80%
inhibition of growth at 20 ppm [2, 4]: ≥ 80%

O=C(Nc1ccc(-c2noc(C(F)(F)F)n2)cc1)C1=CCCC1 [Compound 1.81, N-[4-[5-(trifluoromethyl)-1,2,4-oxadiazol-3-yl]phenyl] cyclopentene-1-carboxamide]
pest or weed control at 200 ppm (Phakopsora pachyrhizi): ≥ 80%
inhibition of growth at 20 ppm [2, 4]: ≥ 80%

O=C(Nc1ccc(-c2noc(C(F)(F)F)n2)cc1)C1CSC1 [Compound 1.82, N-[4-[5-(trifluoromethyl)-1,2,4-oxadiazol-3-yl]phenyl]thietane-3-carboxamide]
pest or weed control at 200 ppm [1, 3]: ≥ 80%
inhibition of growth at 20 ppm [2, 4]: ≥ 80%

O=C1CC(C(=O)Nc2ccc(-c3noc(C(F)(F)F)n3)cc2)C1 [Compound 1.106, 3-oxo-N-[4-[5-(trifluoromethyl)-1,2,4-oxadiazol-3-yl]phenyl]cyclo-butanecarboxamide]
pest or weed control at 200 ppm [1, 3]: ≥ 80%
inhibition of growth at 20 ppm [2, 4]: ≥ 80%

CC(=O)OCC(=O)Nc1ccc(-c2noc(C(F)(F)F)n2)cc1 [Compound 1.95, [2-oxo-2-[4-[5-(trifluoromethyl)-1,2,4-oxadiazol-3-yl]anilino]ethyl] acetate]
pest or weed control at 200 ppm [1, 3]: ≥ 80%
inhibition of growth at 20 ppm [2, 4]: ≥ 80%

O=C(Nc1ccc(-c2noc(C(F)(F)F)n2)cc1)C1CCCC1 [Compound 2.6, N-[4-[5-(trifluoromethyl)-1,2,4-oxadiazol-3-yl]phenyl] cyclopentane-carboxamide]
pest or weed control at 200 ppm [1, 3]: ≥ 80%
inhibition of growth at 20 ppm [2, 4]: ≥ 80%

O=C(CCc1cccnc1)Nc1ccc(-c2noc(C(F)(F)F)n2)cc1 [Compound 1.105, 3-(3-pyridyl)-N-[4-[5-(trifluoromethyl)-1,2,4-oxadiazol-3-yl]phenyl] propanamide]
pest or weed control at 200 ppm [1, 3]: ≥ 80%
inhibition of growth at 20 ppm [2, 4]: ≥ 80%
